Experimental data from patent publication US8946289B2, “Manassatin compounds and methods of making and using the same” (Duke University, priority 2008, dated 2015).
Where two headings read alike, the source gives them in different places.

Assays:
interleukin-2 (IL-2) = assay: Inhibition of interleukin-2 release in Jurkat T cells, ELISA; type: cell-based, human; conditions: Jurkat T cells stimulated with PMA and PHA, 18 h
Protocol: Human E6.1 Jurkat T cells were cultured in RPMI-1640 with 10% fetal bovine serum (FBS), 2 mM I-glutamine, and 1 mM Na-pyruvate. After serum starvation for 7 h, Jurkat cells were plated in 96 well culture plates at 1.25×10^5 cells/mL in RPMI-1640 (without phenol red) with 10% FBS. Cells were treated with phorbol 12-myristate 13-acetate (PMA, 1.25 ng/mL) and phytohemaglutinin (PHA, 0.25 μg/mL) to stimulate secretion of IL-2. Testing compound or DMSO vehicle was added to appropriate wells. […] Plates were then incubated for 18 h. Cell supernatants were collected (100 μL) and assayed for interleukin-2 (IL-2) by ELISA (Human IL-2 ELISA Kit, available from BD Biosciences, San Jose, Calif.). All test conditions were assayed in triplicate and verified with repeated experiments three times.

HIF-1 [1] = assay: ODD-Luc assay (luciferase reporter) for HIF-1 inhibitory activity; type: cell-based, mouse; conditions: read-out: HIF-1 inhibitory activity IC50; 4T1-ODD-Luc cells, 240 μM CoCl2, compounds 24 h
Protocol: The HIF-1 inhibitory of compound 1, 18, and the anti-diol diastereomer 22 were assessed with the ODD-Luc assay (Li, F.; Sonveaux, P.; Rabbani, Z. N.; Liu, S.; Yan, B.; Huang, Q.; Vujaskovic, Z.; Dewhirst, M. W.; Li, C. Y. Mol. Cell 2007, 26, 63-74, which is incorporated by reference). 4T1-ODD-Luc cells, stably transfected with the oxygen-dependent-degradation (ODD) domain of HIF-1α and a firefly luciferase reporter, were seeded in the 24-well plate at a density of 10^5 cells/well. After 16-hour incubation, cells were treated with 240 μM of Cobalt (II) Chloride (Sigma-Aldrich, St. Louis, Mo., USA) and serially diluted compounds for 24 h. To measure the luciferase signals, luciferin (150 mg/mL) was added and the plates were imaged using the Xenogen IVIS imaging system and associated Living Image software (Xenogen, Alameda, Calif.). Luciferase expression/activity was detected and quantified as relative light units (RLUs). Results are means±SD, n=3.
To determine HIF-1 inhibitory activity of 31 and 33, a luciferase-reporter based assay was used as a primary screen. […] Luciferase signals were detected and quantified as relative light units (RLUs).

[2] = test system: 60 different human tumor cell lines; assay: NCI-60 DTP Human Tumor Cell Line Screen; type: cell-based
Protocol: The NCI-60 DTP Human Tumor Cell Line Screen utilized 60 different human tumor cell lines, representing leukemia, melanoma, and cancers of the lung, colon, brain, ovary, breast, prostate, and kidney. The screening was a two-stage process.
The human tumor cell lines of the cancer screening panel were grown in RPMI 1640 medium containing 5% fetal bovine serum and 2 mM L-glutamine. For a typical screening experiment, cells were inoculated into 96 well microtiter plates in 100 μL at plating densities ranging from 5,000 to 40,000 cells/well depending on the doubling time of individual cell lines.
After 24 h, two plates of each cell line were fixed in situ with TCA, to represent a measurement of the cell population for each cell line at the time of drug addition (Tz). […] At the time of drug addition, an aliquot of frozen concentrate was thawed and diluted to twice the desired final maximum test concentration with complete medium containing 50 μg/mL gentamicin. Additional four, 10-fold, or ½ log serial dilutions were made to provide a total of five drug concentrations plus control. Aliquots of 100 μL of these different drug dilutions were added to the appropriate microtiter wells already containing 100 μL of medium, resulting in the required final drug concentrations.
For adherent cells, the assay was terminated by the addition of cold TCA. Cells were fixed in situ by the gentle addition of 50 μL of cold 50% (w/v) TCA (final concentration, 10% TCA) and incubated for 60 minutes at 4° C. The supernatant was discarded, and the plates were washed five times with tap water and air dried. Sulforhodamine B (SRB) solution (100 μL) at 0.4% (w/v) in 1% acetic acid was added to each well, and plates were incubated for 10 minutes at room temperature. […] Bound stain was subsequently solubilized with 10 mM trizma base, and the absorbance was read on an automated plate reader at a wavelength of 515 nm. […] Using the seven absorbance measurements [time zero, (Tz), control growth, (C), and test growth in the presence of drug at the five concentration levels (Ti)], the percentage growth was calculated at each of the drug concentrations levels. Percentage growth inhibition was calculated as: [(Ti−Tz)/(C−Tz)]×100 for concentrations for which Ti>/=Tz [(Ti−Tz)/Tz]×100 for concentrations for which Ti<Tz.
Three dose response parameters were calculated for each experimental agent: GI50, TGI, and LC50. […] The drug concentration resulting in total growth inhibition (TGI) was calculated from Ti=Tz. […] Values were calculated for each of these three parameters if the level of activity was reached; however, if the effect was not reached or is exceeded, the value for that parameter was expressed as greater or less than the maximum or minimum concentration tested.

VEGF = assay: HIF-1 regulated VEGF secretion, ELISA; type: cell-based, mouse; conditions: 4T1 cells, hypoxia 0.5% O2, 24 h
Excerpt: Vascular endothelial growth factor (VEGF) is a gene that is highly involved in tumor progression as a pro-angiogenic factor.

Athymic Nude mouse = assay: Non-tumored animal toxicity assay, single dose; type: in vivo; conditions: for Death Days / Survivors/Total at day 15: single dose
Protocol: All treatment was administered according to exact body weight. A single Athymic Nude mouse was given a single injection (IP) of 400 mg/kg; a second mouse received a dose of 200 mg/kg, and a third mouse received a single dose of 100 mg/kg. […] They were sacrificed if they lost more than 20% of their body weight or if there were other signs of significant toxicity. […] This process was repeated until a tolerated dose was found. This dose was then designated the maximum tolerated dose (MTD). The mice were allowed ad libitum feed and water. Injections were administered IP. Dose volumes were generally 0.1 mL/10 grams body weight but may be up to 0.2 mL/10 grams of body weight.

HIF-1α = assay: Western blot of nuclear extracts, HIF-1α expression in MDA-MB-231 cells; type: cell-based, human
HIF-1α protein = assay: Western blot of nuclear extracts, HIF-1α expression in 4T1 cells; type: cell-based, mouse
4T1 cells = conditions: 24 h, highest concentration examined 10 μM
Protocol: Like MTT (3-(4,5-d imethylthiazol-2-yl)-2,5-diphenyltetrazolium bromide, a tetrazole), MTS was reduced into a formazan product by living cells in the presence of an electron coupling reagent (phenazine methosulfate, PMS). The absorbance of the formazan was detected at 490 nm. […] Then cells were washed and incubated another three hours with cell medium containing MTS/PMS solution at 37° C. (21% O2, 5% CO2). Relative cell survival rate was determined on the O.D. values measured at 490 nm.

HIF-1 [3] = conditions: T47D cells, 10 μM 1,10-phenanthroline, 16 h; cited from earlier work
[4] = single dose 10 μM, leukemia, melanoma, and ovarian cancer

O=c1ccc2c(OCCCCc3ccccc3)c3ccoc3cc2o1 [Psora4, reference compound]
release of interleukin-2 (interleukin-2 (IL-2)): inhibited

COc1ccc([C@H](O)[C@@H](C)Oc2ccc(C3OC(c4ccc(O[C@H](C)[C@@H](O)c5ccc(OC)c(OC)c5)c(OC)c4)[C@H](C)[C@H]3C)cc2OC)cc1OC (stereo partly drawn) [Compound 22]
release of interleukin-2 (interleukin-2 (IL-2)): inhibited

COc1ccc([C@@H](O)[C@@H](C)Oc2ccc(C3OC(c4ccc(O[C@H](C)[C@H](O)c5ccc(OC)c(OC)c5)c(OC)c4)[C@H](C)[C@H]3C)cc2OC)cc1OC (stereo partly drawn) [Compound 33]
IC50 (HIF-1 [1]): 47 nM

COc1ccc([C@@H](O)[C@@H](C)Oc2ccc(C3OC(c4ccc(O[C@H](C)[C@H](O)c5ccc(OC)c(OC)c5)c(OC)c4)[C@H](C)[C@H]3C)cc2OC)cc1OC (stereo partly drawn) [manassantin A]
release of interleukin-2 (interleukin-2 (IL-2)): inhibited
tumor cell growth, trial 1 ([2]; single dose 10 μM, 48 h, SRB): reduced the growth of all tumors tested
lethality, trial 1 [2, 4]: more than 50%
lethality, trial 2 [2, 4]: more than 50%
tumor cell growth, trial 2 ([2]; trial 2, 48 h, SRB): reduced the growth of all tumors tested
concentration significantly inhibiting VEGF induced by hypoxia (VEGF): higher than 10 nM
Death Days (Athymic Nude mouse; Group 4, 100.00 mg/kg/dose IP): 0
Survivors/Total at day 15 (Athymic Nude mouse; Group 4, 100.00 mg/kg/dose IP): 0/1
Death Days (Athymic Nude mouse; Group 11, 12.50 mg/kg/dose IP): 0
Survivors/Total at day 15 (Athymic Nude mouse; Group 11, 12.50 mg/kg/dose IP): 0/1
Death Days (Athymic Nude mouse; Group 12, 1.56 mg/kg/dose IP): none
Survivors/Total at day 15 (Athymic Nude mouse; Group 12, 1.56 mg/kg/dose IP): 1/1
Death Days (Athymic Nude mouse; Group 13, 3.13 mg/kg/dose IP): none
Survivors/Total at day 15 (Athymic Nude mouse; Group 13, 3.13 mg/kg/dose IP): 1/1
Death Days (Athymic Nude mouse; Group 14, 6.25 mg/kg/dose IP): none
Survivors/Total at day 15 (Athymic Nude mouse; Group 14, 6.25 mg/kg/dose IP): 1/1
toxicity (in words) (Athymic Nude mouse; levels of 6.25, 3.13, and 1.56 mg/kg/dose IP): non-toxic
toxicity (in words) (Athymic Nude mouse; levels of 12.50 and 100.00 mg/kg/dose IP): resulted in death
toxicity outcome at first dose levels (Athymic Nude mouse; single IP injection of 400, 200 and 100 mg/kg, one mouse each): all 3 mice had to be sacrificed
HIF-1α nuclear expression induced by CoCl2 (HIF-1α): inhibited
HIF-1α expression induced by CoCl2 (HIF-1α protein; 4T1 cells, 240 μM CoCl2 24 h, manassantin A 100 nM): inhibited
concentration significantly inhibiting hypoxia-induced nuclear expression of HIF-1α protein (HIF-1α protein; 4T1 cells, hypoxia 0.5% O2, 24 h): higher than 10 nM
expression of HIF-1 (HIF-1α protein; at the concentration 100 nM): completely inhibited
cell survival rate (4T1 cells): ~70%
Solubility (Group 4, 200.0 mg/mL in 100% DMSO): soluble, no
Solubility (Group 11, 25.0 mg/mL in 100% DMSO): soluble, no
Solubility (Group 12, 3.125 mg/mL in 100% DMSO): soluble, no
Solubility (Group 13, 3.125 mg/mL in 100% DMSO): soluble, no
Solubility (Group 14, 3.125 mg/mL in 100% DMSO): soluble, no
effect on iron chelator-induced HIF-1 activation (HIF-1 [3]): no significant effect
